# Measurements published in patent US20210253575A1, “PYRROLIDINE AMINE COMPOUNDS FOR THE TREATMENT OF AUTOIMMUNE DISEASE” (Hoffmann-La Roche Inc., priority 2018, published 2021).
# Biological target: T1, human TLR9 (Homo sapiens, UniProt Q9NR96)
# T1 sequence (Q9NR96 26-1032): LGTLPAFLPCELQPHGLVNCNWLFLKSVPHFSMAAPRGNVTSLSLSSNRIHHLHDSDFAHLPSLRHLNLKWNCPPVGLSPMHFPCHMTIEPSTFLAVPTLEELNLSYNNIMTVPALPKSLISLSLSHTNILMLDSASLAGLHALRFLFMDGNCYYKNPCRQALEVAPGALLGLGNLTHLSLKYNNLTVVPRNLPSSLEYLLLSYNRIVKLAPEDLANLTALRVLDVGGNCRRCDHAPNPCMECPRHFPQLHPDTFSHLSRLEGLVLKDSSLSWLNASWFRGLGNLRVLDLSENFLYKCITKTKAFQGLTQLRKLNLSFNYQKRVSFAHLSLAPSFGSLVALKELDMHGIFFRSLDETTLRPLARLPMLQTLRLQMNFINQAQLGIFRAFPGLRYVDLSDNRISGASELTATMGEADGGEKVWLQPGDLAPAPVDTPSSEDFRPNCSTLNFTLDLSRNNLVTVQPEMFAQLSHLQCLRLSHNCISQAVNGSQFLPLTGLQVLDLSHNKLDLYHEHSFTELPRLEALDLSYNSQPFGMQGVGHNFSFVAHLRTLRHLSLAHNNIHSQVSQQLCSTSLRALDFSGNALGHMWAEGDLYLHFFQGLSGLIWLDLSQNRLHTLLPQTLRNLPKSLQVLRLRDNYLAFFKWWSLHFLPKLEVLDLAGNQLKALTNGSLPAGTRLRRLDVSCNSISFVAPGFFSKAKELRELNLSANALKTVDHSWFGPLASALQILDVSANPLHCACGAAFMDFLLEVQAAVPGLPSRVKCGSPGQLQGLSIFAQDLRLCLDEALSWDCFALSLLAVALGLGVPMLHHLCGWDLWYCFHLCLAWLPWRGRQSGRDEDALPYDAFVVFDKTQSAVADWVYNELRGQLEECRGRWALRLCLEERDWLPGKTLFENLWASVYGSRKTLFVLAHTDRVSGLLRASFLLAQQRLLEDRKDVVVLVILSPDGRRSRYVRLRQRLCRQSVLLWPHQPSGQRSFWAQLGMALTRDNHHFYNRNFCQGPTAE
# Test: HEK293-Blue-hTLR-9 cells assay (SEAP reporter, ODN2006 stimulation)
# Format: cell-based
# Conditions: HEK293-Blue-hTLR9 cells, ODN2006 ligand, 20 hrs incubation
# Method: The following tests were carried out in order to determine the activity of the compounds of formula (I) in HEK293-Blue-hTLR-7/8/9 cells assay.
# HEK293-Blue-hTLR-9 Cells Assay:
# A stable HEK293-Blue-hTLR-9 cell line was purchased from InvivoGen (Cat. #: hkb-htlr9, San Diego, Calif., USA). These cells were originally designed for studying the stimulation of human TLR9 by monitoring the activation of NF-κB. A SEAP (secreted embryonic alkaline phosphatase) reporter gene was placed under the control of the IFN-β minimal promoter fused to five NF-κB and AP-1-binding sites. The SEAP was induced by activating NF-κB and AP-1 via stimulating HEK-Blue hTLR9 cells with TLR9 ligands. Therefore the reporter expression was declined by TLR9 antagonist under the stimulation of a ligand, such as ODN2006 (Cat. #: tlrl-2006-1, Invivogen, San Diego, Calif., USA), for incubation of 20 hrs. The cell culture supernatant SEAP reporter activity was determined using QUANTI-Blue™ kit (Cat. #: rep-qb1, Invivogen, San Diego, Calif., USA) at a wavelength of 640 nm, a detection medium that turns purple or blue in the presence of alkaline phosphatase.
# HEK293-Blue-hTLR9 cells were incubated at a density of 250,000˜450,000 cells/mL in a volume of 170 μL in a 96-well plate in Dulbecco's Modified Eagle's medium (DMEM) containing 4.5 g/L glucose, 50 U/mL penicillin, […], […], 2 mM L-glutamine, 10% (v/v) heat-inactivated fetal bovine serum with addition of 20 μL test compound in a serial dilution in the presence of final DMSO at 1% and 10 μL of 20 uM ODN2006 in above DMEM, perform incubation under 37° C. in a CO2incubator for 20 hrs. Then 20 μL of the superatant from each well was incubated with 180 μL Quanti-blue substrate solution at 37° C. for 2 hrs and the absorbance was read at 620˜655 nm using a spectrophotometer. The signalling pathway that TLR9 activation leads to downstream NF-κB activation has been widely accepted, and therefore similar reporter assay was modified for evaluating TLR9 antagonist.
row,SMILES,IC50 [nM]
1,"N#Cc1ccc(N2C[C@H](CN3CCC4(CCNC4)C3)[C@@H](C(F)(F)F)C2)c2nccnc12 (stereo partly drawn) [Example 5, 8-[(3S,4R)-3-(2,7-diazaspiro[4.4]nonan-2-ylmethyl)-4-(trifluoromethyl)pyrrolidin-1-yl]quinoxaline-5-carbonitrile]",137
2,"N#Cc1ccc(N2C[C@H](CN3CC4CCC3CN4)[C@@H](C(F)(F)F)C2)c2nccnc12 (stereo partly drawn) [Example 77, 8-[(3S,4R)-3-(2,5-diazabicyclo[2.2.2]octan-2-ylmethyl)-4-(trifluoromethyl)pyrrolidin-1-yl]quinoxaline-5-carbonitrile]",2340
3,"C[C@@H]1CN(c2ccc(C(F)(F)F)c3nccnc23)C[C@H]1CN1CCC(N2CCCCC2)CC1 (relative stereo) [Example 33, 5-[Trans-3-methyl-4-[[4-(1-piperidyl)-1-piperidyl]methyl]pyrrolidin-1-yl]-8-(trifluoromethyl)quinoxaline]",863
4,"N#Cc1ccc(N2C[C@H](CN3CCC(N4CCNCC4)CC3)[C@@H](C(F)(F)F)C2)c2cccnc12 [Example 52, 5-[(3S,4R)-3-[(4-piperazin-1-yl-1-piperidyl)methyl]-4-(trifluoromethyl)pyrrolidin-1-yl]quinoline-8-carbonitrile]",208
5,"N#Cc1ccc(N2C[C@H](CN3CCC4(CCNC4)CC3)[C@@H](C(F)(F)F)C2)c2cccnc12 [Example 54, 5-[(3S,4R)-3-(2,8-Diazaspiro[4.5]decan-8-ylmethyl)-4-(trifluoromethyl)pyrrolidin-1-yl]quinoline-8-carbonitrile]",152
6,"CC[C@@H]1CN(c2ccc(C#N)c3ncccc23)C[C@H]1CN1CCC2(CCNC2)C1 (relative stereo) [Example 29, 5-[Trans-3-(2,7-diazaspiro[4.4]nonan-2-ylmethyl)-4-ethyl-pyrrolidin-1-yl]quinoline-8-carbonitrile]",56
7,"N#Cc1ccc(N2C[C@H](CN3CCC4(CCNCC4)CC3)[C@@H](C(F)(F)F)C2)c2cccnc12 [Example 2, 5-[(3S,4R)-3-(3,9-diazaspiro[5.5]undecan-3-ylmethyl)-4-(trifluoromethyl)pyrrolidin-1-yl]quinoline-8-carbonitrile]",76
8,"CC[C@@H]1CN(c2ccc(C#N)c3ncccc23)C[C@H]1CN1CCC2(CCNCC2)CC1 (relative stereo) [Example 15, 5-[Trans-3-(3,9-diazaspiro[5.5]undecan-3-ylmethyl)-4-ethyl-pyrrolidin-1-yl]quinoline-8-carbonitrile]",32
9,"N#Cc1ccc(N2CCC(CN3CCC4(CCNCC4)CC3)C2)c2nccnc12 (stereo not drawn) [Example 37, 8-[3-(3,9-Diazaspiro[5.5]undecan-3-ylmethyl)pyrrolidin-1-yl]quinoxaline-5-carbonitrile]",32
10,"N#Cc1ccc(N2CC(CN3CCC4(CCNC4)C3)C3(CC3)C2)c2cccnc12 (stereo not drawn) [Example 43, 5-[7-(2,7-Diazaspiro[4.4]nonan-2-ylmethyl)-5-azaspiro[2.4]heptan-5-yl]quinoline-8-carbonitrile]",62
11,"C[C@H]1CN(C[C@H]2CN(c3ccc(C#N)c4nccnc34)C[C@@H]2C(F)(F)F)CC[C@H]1N [Example 72, 8-[(3S,4R)-3-[[(3S,4R)-4-amino-3-methyl-1-piperidyl]methyl]-4-(trifluoromethyl)pyrrolidin-1-yl]quinoxaline-5-carbonitrile]",506
12,"FC(F)(F)c1ccc(N2CC(CN3CCC4(CCNCC4)CC3)C3(CC3)C2)c2nccnc12 (stereo not drawn) [Example 31, 3-[[5-[8-(Trifluoromethyl)quinoxalin-5-yl]-5-azaspiro[2.4]heptan-7-yl]methyl]-3,9-diazaspiro[5.5]undecane]",383
13,"C[C@H]1CN(c2ccc(C#N)c3nccnc23)C[C@@H]1CN1CCC2(CCNCC2)CC1 [Example 17, 8-[(3S,4R)-3-(3,9-diazaspiro[5.5]undecan-3-ylmethyl)-4-methyl-pyrrolidin-1-yl]quinoxaline-5-carbonitrile]",134
14,"N#Cc1ccc(N2C[C@H](CN3CC4(CCNCC4)C3)[C@@H](C(F)(F)F)C2)c2nccnc12 [Example 48, 8-[(3S,4R)-3-(2,7-diazaspiro[3.5]nonan-2-ylmethyl)-4-(trifluoromethyl)pyrrolidin-1-yl]quinoxaline-5-carbonitrile]",97
15,"CNCC1CCN(C[C@H]2CN(c3ccc(C#N)c4nccnc34)C[C@@H]2C(F)(F)F)CC1 [Example 81, 8-[(3S,4R)-3-[[4-(methylaminomethyl)-1-piperidyl]methyl]-4-(trifluoromethyl)pyrrolidin-1-yl]quinoxaline-5-carbonitrile]",218
16,"N#Cc1ccc(N2C[C@H](CN3CCCC(F)(CN)C3)[C@@H](C(F)(F)F)C2)c2nccnc12 (stereo partly drawn) [Example 78, 8-[(3S,4R)-3-[[3-(aminomethyl)-3-fluoro-1-piperidyl]methyl]-4-(trifluoromethyl)pyrrolidin-1-yl]quinoxaline-5-carbonitrile]",1920
17,"N#Cc1ccc(N2C[C@H](CN3CCC4(CCNC4)C3)[C@@H](C(F)(F)F)C2)c2cccnc12 (stereo partly drawn) [Example 9, 5-[(3S,4R)-3-(2,7-diazaspiro[4.4]nonan-2-ylmethyl)-4-(trifluoromethyl)pyrrolidin-1-yl]quinoline-8-carbonitrile]",104
18,"N#Cc1ccc(N2C[C@H](CN3CCNCC3)[C@@H](C(F)(F)F)C2)c2nccnc12 [Example 59, 8-[(3S,4R)-3-(Piperazin-1-ylmethyl)-4-(trifluoromethyl)pyrrolidin-1-yl]quinoxaline-5-carbonitrile]",2700
19,"N#Cc1ccc(N2CC(CN3CCC4(CCCNC4)CC3)C3(CC3)C2)c2nccnc12 (stereo not drawn) [Example 13, 8-[7-(2,9-Diazaspiro[5.5]undecan-9-ylmethyl)-5-azaspiro[2.4]heptan-5-yl]quinoxaline-5-carbonitrile]",60
20,"C[C@H]1CN(c2ccc(C#N)c3ncccc23)C[C@@H]1CN1CCC2(CCNCC2)CC1 [Example 23, 5-[(3S,4R)-3-(3,9-diazaspiro[5.5]undecan-3-ylmethyl)-4-methyl-pyrrolidin-1-yl]quinoline-8-carbonitrile]",45
21,"N#Cc1ccc(N2C[C@H](CN3CCC(N4CCCCC4)CC3)[C@@H](C(F)(F)F)C2)c2nccnc12 [Example 61, 8-[(3S,4R)-3-[[4-(1-Piperidyl)-1-piperidyl]methyl]-4-(trifluoromethyl)pyrrolidin-1-yl]quinoxaline-5-carbonitrile]",438
22,C[C@@H]1CN(c2ccc(C(F)(F)F)c3nccnc23)C[C@H]1CNC1CCCNCC1 (stereo partly drawn) [Example 40],685
23,"FC(F)(F)c1ccc(N2C[C@@H](CN3CCC4(CCNC4)C3)[C@H](C(F)(F)F)C2)c2nccnc12 (relative stereo) [Example 19, 5-[Trans-3-(2,7-diazaspiro[4.4]nonan-2-ylmethyl)-4-(trifluoromethyl)pyrrolidin-1-yl]-8-(trifluoromethyl)quinoxaline]",815
24,"N#Cc1ccc(N2C[C@H](CN3CC4CNCC4C3)[C@@H](C(F)(F)F)C2)c2nccnc12 (stereo partly drawn) [Example 76, 8-[(3S,4R)-3-(2,3,3a,4,6,6a-hexahydro-1H-pyrrolo[3,4-c]pyrrol-5-ylmethyl)-4-(trifluoromethyl)pyrrolidin-1-yl]quinoxaline-5-carbonitrile]",485
